Entries after “also recorded” stand apart in the source; their conditions may differ.
What was measured:
[1] = tested on: breast cancer molecular subtypes I-VI; assay: Metastasis-free and overall survival of breast cancer patients treated with CMF or CAF adjuvant chemotherapy, compared in each molecular subtype (log-rank test); format: in vivo, human; conditions: for sensitivity / response of the breast cancer subtype to the drug or regimen: molecular subtype IV breast cancer, inferred from CMF vs CAF survival
Text: Patients who had been diagnosed, treated and followed for breast cancer progression between 1991 and 2003 at the Koo Foundation Sun Yat-Sen Cancer Center (KFSYSCC), and had their fresh breast cancer tissue frozen in liquid nitrogen at the institutional tumor bank were identified. […] The study was approved by the institutional review board. Samples deposited in the tumor bank were randomly selected. A total of 447 cases were available. Samples of insufficient RNA (n=1), poor RNA quality (n=116) or unacceptable microarray quality (n=18) were excluded from the study, leaving 312 random samples available (Cohort-1). Gene expression profiles of 15 additional lobular carcinomas of breast collected between 1999 and 2004 were also included in the study (Cohort 2). Thus, the total number of samples was 327.
All statistical analyses were conducted using SAS/STAT software (ver. 9.1.3) (SAS Institute, Inc.) and R software package (v2.6) from Bioconductor. Fisher's exact test was conducted to determine statistical correlation between molecular subtypes and various clinical phenotypes. The exact p values were estimated by Monte Carlo simulation. Log-rank test was used to analyze survival differences between different molecular subtypes or treatment groups.
The breast cancer samples used in this study were collected over a period of more than 10 years. The period covered a major shift of chemotherapy regimen from CMF (cyclophosphamide-methotrexate-fluorouracil) therapy to CAF (cyclophosphamide-adriamycin-fluorouracil) therapy around 1997 and 1998. The cohorts in this study offered a precious opportunity to investigate how different molecular subtypes of breast cancer responded differently to this change of adjuvant chemotherapy regimen.
Metastasis-free and overall survival were compared for patients treated with CMF and CAF for adjuvant therapy in each molecular subtype. […] Nevertheless, the CAF group had more N stage=1 patients and the CMF group had more N stage=0 patients (Table 15b).

tumors = conditions: TNP-470 below maximum tolerated dose plus cyclophosphamide 170 mg/kg, every 6 days, in combination; cited from earlier work

Row | Structure (SMILES) | sensitivity / response of the breast cancer subtype to the drug or regimen [1] | tumor response to the treatment regimen (tumors) | treatment results (metastasis-free and overall survival), CAF vs CMF adjuvant chemotherapy ([1]; molecular subtype IV breast cancer patients, adjuvant chemotherapy after surgery)
1 | CN(Cc1cnc2nc(N)nc(N)c2n1)c1ccc(C(=O)N[C@@H](CCC(=O)O)C(=O)O)cc1 [methotrexate] | relatively insensitive |  | 
2 | O=P1(N(CCCl)CCCl)NCCCO1 (centres unmarked) [cyclophosphamide] |  | complete regression | 
3 | COc1cccc2c1C(=O)c1c(O)c3c(c(O)c1C2=O)C[C@@](O)(C(=O)CO)C[C@@H]3O[C@H]1C[C@H](N)[C@H](O)[C@H](C)O1 [adriamycin, doxorubicin] | very sensitive |  | dramatic impact; also recorded: significantly improved
4 | CO[C@@H]1[C@H](OC(=O)NC(=O)CCl)CC[C@]2(CO2)[C@H]1[C@@]1(C)O[C@@H]1CC=C(C)C [TNP-470] |  | complete regression | 
